# Measurements taken from ChEMBL document CHEMBL1125003, “Synthesis, biological evaluation, and quantitative structure-activity relationship analysis of [beta-(Aroylamino)ethyl]piperazines and -piperidines and [2-[(Arylamino)carbonyl]ethyl]piperazines, -pyrazinopyridoindoles, and -pyrazinoisoquinolines. A new class of potent H1 antagonists” (J Med Chem, 1990).
# Several values for one entry are separate records, joined by “and”; a condition that tells them apart may be missing. Equal entries are not always repeated.
# Target: Histamine H1 receptor (Cavia porcellus, UniProt P31389)
# Test: Antihistaminic activity against Histamine H1 receptor was measured on isolated terminal part of guinea pig ileum
# Format: tissue-based
# Details: read-out: I50
# Sequence of Histamine H1 receptor (P31389 whole entry): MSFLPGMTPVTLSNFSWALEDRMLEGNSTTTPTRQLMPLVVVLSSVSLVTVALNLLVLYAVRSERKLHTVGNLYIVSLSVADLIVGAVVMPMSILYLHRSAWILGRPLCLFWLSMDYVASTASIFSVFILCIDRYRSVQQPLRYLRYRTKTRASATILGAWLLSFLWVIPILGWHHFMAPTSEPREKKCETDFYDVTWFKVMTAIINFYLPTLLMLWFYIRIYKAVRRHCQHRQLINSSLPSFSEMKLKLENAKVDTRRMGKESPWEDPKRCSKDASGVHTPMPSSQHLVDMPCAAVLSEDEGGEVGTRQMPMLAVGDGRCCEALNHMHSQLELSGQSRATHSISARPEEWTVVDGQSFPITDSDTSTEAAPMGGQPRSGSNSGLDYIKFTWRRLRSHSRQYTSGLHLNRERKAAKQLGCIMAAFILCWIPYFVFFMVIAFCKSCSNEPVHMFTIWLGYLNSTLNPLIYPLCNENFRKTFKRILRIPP
row,IC50,SMILES
1,963 nM,COc1ccccc1NC(=O)CCN1CCC(Cc2ccccc2)CC1

# Same assay, conditions: read-out: I50 (converted)
row,IC50,SMILES
1,1340 nM,O=C(CCN1CCN2Cc3ccccc3CC2C1)Nc1ccccc1 (stereo unspecified)
2,661 nM and 673 nM,O=C(NCCN1CCC(Cc2ccccc2)CC1)c1ccccc1Br
3,1320 nM and 1310 nM,O=C(CCN1CCN2Cc3ccccc3CC2C1)Nc1ccccc1[N+](=O)[O-] (stereo unspecified)
4,1740 nM,O=C(CCN1CCN2Cc3[nH]c4ccccc4c3CC2C1)Nc1ccccc1[N+](=O)[O-] (stereo unspecified)
5,561 nM and 560 nM,O=C(CCN1CCC(Cc2ccccc2)CC1)Nc1ccccc1Cl
6,1320 nM and 1570 nM,O=C(NCCN1CCN(Cc2ccccc2)CC1)c1ccccc1[N+](=O)[O-]
7,345 nM and 401 nM,O=C(NCCN1CCN(Cc2ccccc2)CC1)c1ccccc1I
8,1600 nM,O=C(CCN1CCN2Cc3[nH]c4ccccc4c3CC2C1)Nc1ccccc1 (stereo unspecified)
9,1280 nM and 1270 nM,O=C(CCN1CCN2Cc3[nH]c4ccccc4c3CC2C1)Nc1ccccc1F (stereo unspecified)
10,778 nM and 939 nM,CCc1ccccc1NC(=O)CCN1CCN(Cc2ccccc2)CC1
11,832 nM and 822 nM,O=C(CCN1CCC(Cc2ccccc2)CC1)Nc1ccccc1F
12,979 nM and 978 nM,O=C(CCN1CCN2Cc3[nH]c4ccccc4c3CC2C1)Nc1ccccc1Cl (stereo unspecified)
13,1320 nM and 908 nM,O=C(CCN1CCN(Cc2ccccc2)CC1)Nc1ccccc1F
14,836 nM and 1010 nM,O=C(CCN1CCN(Cc2ccccc2)CC1)Nc1ccccc1Cl
15,1550 nM and 1740 nM,O=C(NCCN1CCC(Cc2ccccc2)CC1)c1ccccc1
16,364 nM,COc1ccccc1C(=O)NCCN1CCN2Cc3[nH]c4ccccc4c3CC2C1 (stereo unspecified)
17,634 nM,CCc1ccccc1NC(=O)CCN1CCN2Cc3[nH]c4ccccc4c3CC2C1 (stereo unspecified)
18,799 nM and 785 nM,O=C(NCCN1CCC(Cc2ccccc2)CC1)c1ccccc1Cl
19,1070 nM and 1190 nM,Cc1ccccc1C(=O)NCCN1CCC(Cc2ccccc2)CC1
20,477 nM and 485 nM,CCc1ccccc1NC(=O)CCN1CCC(Cc2ccccc2)CC1
21,1510 nM and 1520 nM,O=C(CCN1CCC(Cc2ccccc2)CC1)Nc1ccccc1
22,677 nM and 676 nM,O=C(CCN1CCN2Cc3ccccc3CC2C1)Nc1ccccc1Cl (stereo unspecified)
23,965 nM,COc1ccccc1NC(=O)CCN1CCC(Cc2ccccc2)CC1
24,7120 nM and 7110 nM,Cc1ccccc1C(=O)NCCN1CCN(Cc2ccccc2)CC1
25,525 nM and 523 nM,CCc1ccccc1NC(=O)CCN1CCN2Cc3ccccc3CC2C1 (stereo unspecified)

row,SMILES,IC50
1,ClN1CCN2Cc3[nH]c4ccccc4c3CC2C1 (stereo unspecified),206 nM
2,O=C(CCN1CCN(Cc2ccccc2)CC1)Nc1ccccc1[N+](=O)[O-],1700 nM and 2040 nM
3,c1ccc2c3c([nH]c2c1)CN1CCNCC1C3 (stereo unspecified),535 nM
4,O=C(NCCN1CCN(Cc2ccccc2)CC1)c1ccccc1,6940 nM and 8500 nM
5,O=C(CCN1CCN(Cc2ccccc2)CC1)Nc1ccccc1,2170 nM and 2200 nM
6,O=C(NCCN1CCN(Cc2ccccc2)CC1)c1ccccc1Br,421 nM and 497 nM
7,CN1CCN2Cc3[nH]c4ccccc4c3CC2C1 (stereo unspecified),283 nM
8,O=C(NCCN1CCN(Cc2ccccc2)CC1)c1ccccc1Cl,696 nM and 838 nM
9,NN1CCN2Cc3[nH]c4ccccc4c3CC2C1 (stereo unspecified),925 nM
10,O=[N+]([O-])N1CCN2Cc3[nH]c4ccccc4c3CC2C1 (stereo unspecified),375 nM
